Experimental findings from ChEMBL document CHEMBL5036303, “Cyclic Analogues of the Chemerin C-Terminus Mimic a Loop Conformation Essential for Activating the Chemokine-like Receptor 1” (J Med Chem, 2021) are described below.

Where a SMILES comes first, the peptide text is derived from it.

In experiment [1] the target is T1, Chemerin-like receptor 1 (Homo sapiens, UniProt Q99788).
T1 sequence (Q99788 whole entry): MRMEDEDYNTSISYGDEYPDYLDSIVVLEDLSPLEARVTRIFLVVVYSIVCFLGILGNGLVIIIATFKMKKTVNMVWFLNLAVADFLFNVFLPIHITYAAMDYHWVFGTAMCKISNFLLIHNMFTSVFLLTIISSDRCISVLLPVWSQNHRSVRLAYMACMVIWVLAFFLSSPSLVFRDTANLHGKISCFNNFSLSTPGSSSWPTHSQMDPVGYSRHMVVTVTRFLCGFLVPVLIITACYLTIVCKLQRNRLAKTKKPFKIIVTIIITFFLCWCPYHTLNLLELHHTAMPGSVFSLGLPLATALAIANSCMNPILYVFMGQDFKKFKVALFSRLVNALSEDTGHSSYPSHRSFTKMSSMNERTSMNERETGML
The experiment in a line: Agonist activity at wild type CMKL1 (unknown origin) expressed in COS-7 cells assessed as increase in calcium flux measured for 40 sec by Fluo-2 AM dye based assay. Format: functional, cell-based. On the technique in general: Calcium flux is commonly read through the fluorescence of an indicator in the cells.

Experiment [2] in a line: Agonist activity at CMKL1 Y268L mutant (unknown origin) expressed in COS-7 cells assessed as increase in calcium flux measured for 40 sec by Fluo-2 AM dye based assay. The experiment is classed as cell-based.
The target in experiment [3] is T1, Chemerin-like receptor 1. The experiment in a line: Agonist activity at Wild type CMKL1 (unknown origin) expressed in COS-7 cells assessed as accumulation of inositol phosphate incubated for 3 hrs by liquid scintillation counting method. Format: functional, cell-based.
A short description of experiment [4]: Agonist activity at CMKL1 Y268A mutant (unknown origin) expressed in COS-7 cells assessed as increase in calcium flux measured for 40 sec by Fluo-2 AM dye based assay. Format: cell-based.
The nature of experiment [5]: Agonist activity at CMKL1 E658A mutant (unknown origin) expressed in COS-7 cells assessed as increase in calcium flux measured for 40 sec by Fluo-2 AM dye based assay. The experiment is classed as cell-based.
Experiment [6] can be described thus: Agonist activity at CMKL1 F479A mutant (unknown origin) expressed in COS-7 cells assessed as increase in calcium flux measured for 40 sec by Fluo-2 AM dye based assay. The experiment is classed as cell-based.
A short description of experiment [7]: Agonist activity at CMKL1 F476A mutant (unknown origin) expressed in COS-7 cells assessed as increase in calcium flux measured for 40 sec by Fluo-2 AM dye based assay. The experiment is classed as cell-based.
Experiment [8] is described as follows: Agonist activity at CMKL1 Y263A mutant (unknown origin) expressed in COS-7 cells assessed as increase in calcium flux measured for 40 sec by Fluo-2 AM dye based assay. Format: cell-based.
Experiment [9] can be described thus: Agonist activity at CMKL1 F479A mutant (unknown origin) expressed in COS-7 cells assessed as accumulation of inositol phosphate incubated for 3 hrs by liquid scintillation counting method. The experiment is classed as cell-based. The note with it: COS-7, 3 h.
The nature of experiment [10]: Agonist activity at CMKL1 E658A mutant (unknown origin) expressed in COS-7 cells assessed as accumulation of inositol phosphate incubated for 3 hrs by liquid scintillation counting method. The experiment is classed as cell-based. To be noted: COS-7, 3 h.
A short description of experiment [11]: Agonist activity at CMKL1 F476A mutant (unknown origin) expressed in COS-7 cells assessed as accumulation of inositol phosphate incubated for 3 hrs by liquid scintillation counting method. The experiment is classed as cell-based. The note with it: COS-7, 3 h.

Turning to `CC(C)C[C@H](NC(=O)[C@H](CCC(N)=O)NC(=O)CNC(=O)[C@@H]1CCCN1C(=O)[C@H](Cc1ccccc1)NC(=O)[C@@H](N)Cc1ccc(O)cc1)C(=O)N[C@@H](C)C(=O)N[C@@H](Cc1ccccc1)C(=O)N[C@@H](CO)C(=O)O`, the EC50 in [1] was 195 nM; in experiment [2] (read-out: EC50) it was > 1000 nM; in experiment [2] (read-out: pEC50 (converted)) it was > 1000 nM.

Regarding `C[C@H](NC(=O)[C@H](Cc1ccccc1)NC(=O)[C@H](CCC(N)=O)NC(=O)CNC(=O)[C@@H]1CCCN1C(=O)[C@H](Cc1ccccc1)NC(=O)[C@@H](N)Cc1ccc(O)cc1)C(=O)NCc1ccccc1`, the EC50 in [1] is 32 nM.

`C[C@H](NC(=O)[C@H](Cc1ccccc1)NC(=O)[C@H](CCC(N)=O)NC(=O)CNC(=O)[C@@H]1CCCN1C(=O)[C@H](Cc1ccccc1)NC(=O)[C@@H](N)Cc1ccc(O)cc1)C(=O)N[C@@H](Cc1ccccc1)C(=O)O` (H-YFPGQFAF-OH): the EC50 in experiment [1] stood at 20 nM.

With `C[C@@H]1NC(=O)[C@H](Cc2ccccc2)NC(=O)[C@H](CCC(N)=O)NC(=O)[C@@H](NC(=O)[C@@H]2CCCN2C(=O)[C@H](Cc2ccccc2)NC(=O)[C@@H](N)Cc2ccc(O)cc2)CSSC[C@@H](C(=O)O)NC(=O)[C@H](Cc2ccccc2)NC1=O` (HELM PEPTIDE1{Y.F.P.C.Q.F.A.F.C}$PEPTIDE1,PEPTIDE1,4:R3-9:R3$$$V2.0), the EC50 in experiment [1] was determined as 64 nM; in [3] it was 150 nM.

With `C[C@@H]1NC(=O)[C@H](Cc2ccccc2)NC(=O)[C@H](CCC(N)=O)NC(=O)[C@H](NC(=O)[C@@H]2CCCN2C(=O)[C@H](Cc2ccccc2)NC(=O)[C@@H](N)Cc2ccc(O)cc2)CCSSC[C@@H](C(=O)O)NC(=O)[C@H](Cc2ccccc2)NC1=O` (HELM PEPTIDE1{Y.F.P.[O=C([C@@H](CCS[*:3])N[*:1])[*:2]].Q.F.A.F.C}$PEPTIDE1,PEPTIDE1,4:R3-9:R3$$$V2.0), the EC50 in experiment [4] (read-out: EC50), in experiment [4] (read-out: pEC50 (converted)), in [5] (read-out: EC50), in [5] (read-out: pEC50 (converted)), in [6] (read-out: EC50) and in experiment [6] (read-out: pEC50 (converted)) was > 1000 nM throughout. In addition, the EC50 in experiment [7] (read-out: EC50) was 85 nM; in experiment [7] (read-out: pEC50 (converted)) it was 85.1 nM; in [8] (read-out: EC50), 197 nM; in experiment [8] (read-out: pEC50 (converted)), 200 nM; in experiment [9], > 10000 nM; in experiment [10] (read-out: EC50), > 10000 nM. Besides, the EC50 is > 10000 nM in experiment [10] (read-out: pEC50 (converted)) and 3890 nM in experiment [11].
